The source of these data is article PMC5775280, “Functional Characterization and Signaling Systems of Corazonin and Red Pigment Concentrating Hormone in the Green Shore Crab, Carcinus maenas” (Frontiers in Neuroscience, 2018).

One assay relates to semi-isolated heart. As to the kind of experiment: Cardioactivity on semi-isolated heart preparations. More on the design: species or system Carcinus maenas. The settings on record: superfusion, concentrations up to 10^−6 M, 20°C. As for the experimental part: Cardioactivity of […], and ACP was performed on semi-isolated heart preparations of C. maenas. Crabs (ca. 65 mm carapace width) were ice-anesthetized and rapidly decerebrated before removing all limbs and the dorsal carapace to expose the heart and pericardial cavity. The heart was connected to a force transducer (MLT0210/A) via a micro fishing hook (size 28) and fine nylon (0.08 mm) monofilament. Connection to a PC with Chart 4.0 was via a Bridge Pod (ML301) and Powerlab 4/20 (AD Instruments Pty Ltd, Castle Hill, NSW, Australia). Transducer gain was set at maximum sensitivity (200 μV). Heart preparations were initially perfused with C. maenas physiological saline (Saver et al., [1999]) at room temperature (20°C). Once a stable heart output was achieved, hearts were firstly perfused with 1 ml saline, followed by increasing concentrations of peptides, applied in 1 ml. Crustacean cardioactive peptide (CCAP) (Bachem, Bubendorf, Switzerland), or proctolin (Sigma, Poole, UK) were positive controls (10^-11-10^-7 M). Test peptides ([…]) were perfused at 10^-8-10^-6 M for approximately 2 min at each concentration.

Assay [1] in a line: Hemolymph glucose levels after peptide injection. In kind it is in vivo, Carcinus maenas. The following applies: injection 100 pmol, n = 8. As to the method: (§1) Adipokinetic and glucose mobilizing activity of […] and ACP were performed by measurement of triglycerides in hemolymph ([…] et al., [2014]) and glucose (Chung and Webster, [1996]). Hemolymph samples (ca. 100 μl) were taken from crabs injected with each peptide at 0 and 90 min, and subsequently assayed.

Assay [2] can be described thus: Hemolymph triglyceride levels after peptide injection. In kind it is in vivo, Carcinus maenas. The following applies: mean ± 1 SEM, n = 6, SEM. As for the experimental part: as §1

Peptide text beside a SMILES is read from it.

With `CC(C)C[C@H](NC(=O)[C@@H]1CCC(=O)N1)C(=O)N[C@@H](CC(N)=O)C(=O)N[C@@H](Cc1ccccc1)C(=O)N[C@@H](CO)C(=O)N1CCC[C@H]1C(=O)NCC(=O)N[C@@H](Cc1c[nH]c2ccccc12)C(N)=O` [RPCH] (HELM PEPTIDE1{[Glp].L.N.F.S.P.G.W.[am]}$$$$V2.0), the “cardioacceleratory effect on semi-isolated hearts” value with semi-isolated heart is reported as “completely without cardioacceleratory effect”. In addition, the “effect of eyestalk removal on the glucose response” value in assay [1] (eyestalk removal, 90 min) is “completely abolished this response”. The “effect on circulating glucose levels, intact crabs” value in assay [1] (within 90 min, Student's matched pair t-test P < 0.01) was “significantly raised circulating glucose levels”. In addition, the “hemolymph triglyceride levels, 0 min” value turned out to be 0.14 ± 0.14 µg/µL in assay [2] (injection 100 pmol per crab); 0.49 ± 0.27 µg/µL in assay [2] (repeat experiment, injection 10 pmol); 1.65 ± 0.59 µg/µL in assay [2] (repeat experiment, injection 100 pmol). Also, the “hemolymph triglyceride levels, 90 min” value in assay [2] (injection 100 pmol per crab, no significant change over 90 min) amounted to 0.86 ± 0.4 µg/µL; in assay [2] (repeat experiment, injection 10 pmol, no significant change), 0.20 ± 0.28 µg/µL; in assay [2] (repeat experiment, injection 100 pmol, no significant change) it was 0.78 ± 0.44 µg/µL.
